Test system: genotype 1b (Con-1) HCV replicon in Huh-7 cells
Experiment: HCV replicon luciferase assay
Format: cell-based
Details: 1b replicon, Huh-7, Renilla luciferase, 3 days incubation
Method: The cell lines used to evaluate compounds consist of a human hepatocyte derived cell line (Huh-7) that constitutively expresses a genotype 1b (Con-1) HCV replicon or a genotype 1b (Con-1) HCV replicon with an asparagine replacing the cysteine at amino acid 316, or a genotype 2a (JFH-1) replicon, containing a Renilla luciferase reporter gene. These cells were maintained in Dulbecco's modified Eagle medium (DMEM) containing 10% FBS, 100 U/mL penicillin/streptomycin and 1.0 mg/mL G418.
HCV Replicon Luciferase Assay.
To evaluate compound efficacy, titrated compounds were transferred to sterile 384-well tissue culture treated plates, and the plates were seeded with HCV replicon cells (50 μL at a density of 2.4×10^3 cells/well) in DMEM containing 4% FBS (final DMSO concentration at 0.5%). After 3 days incubation at 37° C., cells were analyzed for Renilla Luciferase activity using the EnduRen substrate (Promega cat # E6485) according to the manufacturer's directions. Briefly, the EnduRen substrate was diluted in DMEM and then added to the plates to a final concentration of 7.5 μM. The plates were incubated for at least 1 h at 37° C. then read on a Viewlux Imager (PerkinElmer) using a luminescence program. The 50% effective concentration (EC50) was calculated using the four-parameter logistic formula noted above.

Compound	EC50	EC50 (Hepatitis C virus, Huh-7, 72 h)
CNC(=O)c1c(-c2ccc(F)cc2)oc2cc(CCC(F)(F)F)c(-c3cccc(C(=O)NC4(c5ncccn5)CC(OC(F)F)C4)c3)cc12 (single isomer, unassigned) [Example 29b]	30 nM	
CNC(=O)c1c(-c2ccc(F)cc2)oc2cc(CCC(F)(F)F)c(-c3cc(C(=O)NC4(c5ncccn5)CC(OC(F)(F)F)C4)c(OC)cc3C)cc12 (single isomer, unassigned) [Example 46a, 2-(4-Fluorophenyl)-5-(4-methoxy-2-methyl-5-((1-(pyrimidin-2-yl)-3-(trifluoromethoxy)cyclobutyl)carbamoyl)phenyl)-N-methyl-6-(3,3,3-trifluoropropyl)benzofuran-3-carboxamide]		40 nM
CNC(=O)c1c(-c2ccc(F)cc2)oc2cc(CCC(F)(F)F)c(-c3cc(C(=O)NC4(c5ncccn5)CC(OC(F)(F)F)C4)c(OC)cc3C)cc12 (single isomer, unassigned) [Example 46b, 2-(4-Fluorophenyl)-5-(4-methoxy-2-methyl-5-((1-(pyrimidin-2-yl)-3-(trifluoromethoxy)cyclobutyl)carbamoyl)phenyl)-N-methyl-6-(3,3,3-trifluoropropyl)benzofuran-3-carboxamide]	80 nM	
CCCc1cc2oc(-c3ccc(F)cc3)c(C(=O)NC)c2cc1-c1ccc(F)c(C(=O)NC2(c3ncccn3)CC(OC(F)(F)F)C2)c1 (single isomer, unassigned) [Example 48a, 5-(4-Fluoro-3-((1-(pyrimidin-2-yl)-3-(trifluoromethoxy)cyclobutyl)carbamoyl)phenyl)-2-(4-fluorophenyl)-N-methyl-6-propylbenzofuran-3-carboxamide]		20 nM
CNC(=O)c1c(-c2ccc(F)cc2)oc2cc(CCC(F)(F)F)c(-c3ccc(F)c(C(=O)NC4(c5ncccn5)CC(OC(F)(F)F)C4)c3)cc12 (single isomer, unassigned) [Example 49a, 5-(4-Fluoro-3-((1-(pyrimidin-2-yl)-3-(trifluoromethoxy)cyclobutyl)carbamoyl)phenyl)-2-(4-fluorophenyl)-N-methyl-6-(3,3,3-trifluoropropyl)benzofuran-3-carboxamide]		20 nM
CCCc1cc2oc(-c3ccc(F)cc3)c(C(=O)NC)c2cc1-c1cc(C(=O)NC2(c3ncccn3)CC(OC(F)(F)F)C2)c(OC)cc1C (single isomer, unassigned) [Example 50a, 2-(4-Fluorophenyl)-5-(4-methoxy-2-methyl-5-((1-(pyrimidin-2-yl)-3-(trifluoromethoxy)cyclobutyl)carbamoyl)phenyl)-N-methyl-6-propylbenzofuran-3-carboxamide]		120 nM
CNC(=O)c1c(-c2ccc(F)cc2)oc2cc(CCC(F)(F)F)c(-c3cc(C(=O)NC4(C)CC(OC(F)F)C4)c(OC)cc3C)cc12 (single isomer, unassigned) [Example 53a, 5-(5-((3-(Difluoromethoxy)-1-methylcyclobutyl)carbamoyl)-4-methoxy-2-methylphenyl)-2-(4-fluorophenyl)-N-methyl-6-(3,3,3-trifluoropropyl)benzofuran-3-carboxamide]		60 nM
CNC(=O)c1c(-c2ccc(F)cc2)oc2cc(CCC(F)(F)F)c(-c3cc(C(=O)NC4(C)CC(OC(F)F)C4)c(OC)cc3C)cc12 (single isomer, unassigned) [Example 53b, 5-(5-((3-(Difluoromethoxy)-1-methylcyclobutyl)carbamoyl)-4-methoxy-2-methylphenyl)-2-(4-fluorophenyl)-N-methyl-6-(3,3,3-trifluoropropyl)benzofuran-3-carboxamide]	60 nM	
CCCc1cc2oc(-c3ccc(F)cc3)c(C(=O)NC)c2cc1-c1cccc(C(=O)NC2(C)CC(OC(F)F)C2)c1 (single isomer, unassigned) [Example 55a, 5-(3-((3-(Difluoromethoxy)-1-methylcyclobutyl)carbamoyl)phenyl)-2-(4-fluorophenyl)-N-methyl-6-propylbenzofuran-3-carboxamide]		30 nM
CCCc1cc2oc(-c3ccc(F)cc3)c(C(=O)NC)c2cc1-c1cccc(C(=O)NC2(C)CC(OC(F)F)C2)c1 (single isomer, unassigned) [Example 55b, 5-(3-((3-(Difluoromethoxy)-1-methylcyclobutyl)carbamoyl)phenyl)-2-(4-fluorophenyl)-N-methyl-6-propylbenzofuran-3-carboxamide]	30 nM	
CCCc1cc2oc(-c3ccc(F)cc3)c(C(=O)NC)c2cc1-c1cc(C(=O)NC2(C)CC(OC(F)F)C2)c(OC)cc1C (single isomer, unassigned) [Example 57b, 5-(5-((3-(Difluoromethoxy)-1-methylcyclobutyl)carbamoyl)-4-methoxy-2-methylphenyl)-2-(4-fluorophenyl)-N-methyl-6-propylbenzofuran-3-carboxamide]	70 nM	
CNC(=O)c1c(-c2ccc(F)cc2)oc2cc(CCC(F)(F)F)c(-c3cccc(C(=O)NC4(C)CC(OC(F)F)C4)c3)cc12 (single isomer, unassigned) [Example 59a, 5-(3-((3-(Difluoromethoxy)-1-methylcyclobutyl)carbamoyl)phenyl)-2-(4-fluorophenyl)-N-methyl-6-(3,3,3-trifluoropropyl)benzofuran-3-carboxamide]		30 nM
CCCc1cc2oc(-c3ccc(F)cc3)c(C(=O)NC)c2cc1-c1ccc(F)c(C(=O)NC2(C)CC(OC(F)F)C2)c1 (single isomer, unassigned) [Example 61a, 5-(3-((3-(Difluoromethoxy)-1-methylcyclobutyl)carbamoyl)-4-fluorophenyl)-2-(4-fluorophenyl)-N-methyl-6-propylbenzofuran-3-carboxamide]		20 nM
CCCc1cc2oc(-c3ccc(F)cc3)c(C(=O)NC)c2cc1-c1ccc(F)c(C(=O)NC2(C)CC(OC(F)F)C2)c1 (single isomer, unassigned) [Example 61b, 5-(3-((3-(Difluoromethoxy)-1-methylcyclobutyl)carbamoyl)-4-fluorophenyl)-2-(4-fluorophenyl)-N-methyl-6-propylbenzofuran-3-carboxamide]	20 nM	
CNC(=O)c1c(-c2ccc(F)cc2)oc2cc(CCC(F)(F)F)c(-c3ccc(F)c(C(=O)NC4(C)CC(OC(F)F)C4)c3)cc12 (single isomer, unassigned) [Example 63a, 5-(3-((3-(Difluoromethoxy)-1-methylcyclobutyl)carbamoyl)-4-fluorophenyl)-2-(4-fluorophenyl)-N-methyl-6-(3,3,3-trifluoropropyl)benzofuran-3-carboxamide]		10 nM
CCOc1cc2oc(-c3ccc(F)cc3)c(C(=O)NC)c2cc1-c1cccc(C(=O)NC2(c3ncccn3)CC(OC(F)F)C2)c1 (single isomer, unassigned) [Example 67a, 5-(3-((3-(Difluoromethoxy)-1-(pyrimidin-2-yl)cyclobutyl)carbamoyl)phenyl)-6-ethoxy-2-(4-fluorophenyl)-N-methylbenzofuran-3-carboxamide]	30 nM	
CCN(c1cc2oc(-c3ccc(F)cc3)c(C(=O)NC)c2c(F)c1-c1cccc(C(=O)NC2(c3ncccn3)CC(OC(F)F)C2)c1)S(C)(=O)=O (stereo not shown) [Example 21, 5-(3-((3-(Difluoromethoxy)-1-(pyrimidin-2-yl)cyclobutyl)carbamoyl)phenyl)-6-(N-ethylmethylsulfonamido)-4-fluoro-2-(4-fluorophenyl)-N-methylbenzofuran-3-carboxamide]		2.23 nM
CCN(c1cc2oc(-c3ccc(F)cc3)c(C(=O)NC)c2c(F)c1-c1cccc(C(=O)NC2(c3ncccn3)CC(F)C2)c1)S(C)(=O)=O (stereo not shown) [Example 22, 6-(N-ethylmethylsulfonamido)-4-fluoro-5-(3-((3-fluoro-1-(pyrimidin-2-yl)cyclobutyl)carbamoyl)phenyl)-2-(4-fluorophenyl)-N-methylbenzofuran-3-carboxamide]		4.94 nM
CCN(c1cc2oc(-c3ccc(F)cc3)c(C(=O)NC)c2cc1-c1cccc(C(=O)NC2(c3ncccn3)CC(OC(F)F)C2)c1)S(C)(=O)=O (stereo not shown) [Example 24, 5-(3-((3-(difluoromethoxy)-1-(pyrimidin-2-yl)cyclobutyl)carbamoyl)phenyl)-6-(N-ethylmethylsulfonamido)-2-(4-fluorophenyl)-N-methylbenzofuran-3-carboxamide]		2.2 nM
CCN(c1cc2oc(-c3ccc(F)cc3)c(C(=O)NC)c2c(F)c1-c1ccc(OC)c(C(=O)NC2(c3ncccn3)CC(F)C2)c1)S(C)(=O)=O (stereo not shown) [Example 26, 6-(N-ethylmethylsulfonamido)-4-fluoro-5-(3-((3-fluoro-1-(pyrimidin-2-yl)cyclobutyl)carbamoyl)-4-methoxyphenyl)-2-(4-fluorophenyl)-N-methylbenzofuran-3-carboxamide]		2.25 nM
CCCc1cc2oc(-c3ccc(F)cc3)c(C(=O)NC)c2cc1-c1ccc(F)c(C(=O)NC2(c3ncccn3)CC(OC(F)F)C2)c1 (stereo not shown) [Example 32, 5-(3-((3-(Difluoromethoxy)-1-(pyrimidin-2-yl)cyclobutyl)carbamoyl)-4-fluorophenyl)-2-(4-fluorophenyl)-N-methyl-6-propylbenzofuran-3-carboxamide]		9.02 nM
CCCc1cc2oc(-c3ccc(F)cc3)c(C(=O)NC)c2cc1-c1cccc(C(=O)NC2(c3ncccn3)CC(OC(F)F)C2)c1 (stereo not shown) [Example 33, 5-(3-((3-(Difluoromethoxy)-1-(pyrimidin-2-yl)cyclobutyl)carbamoyl)phenyl)-2-(4-fluorophenyl)-N-methyl-6-propylbenzofuran-3-carboxamide]		4.55 nM

From US11161837B2, “Benzofuran derivatives for the treatment of hepatitis C” (BRISTOL-MYERS SQUIBB COMPANY, priority 2016, dated 2021)
